In patent US20240376094A2, “SELECTIVE BCL-XL PROTAC COMPOUNDS AND METHODS OF USE” (Les Laboratoires Servier, priority 2021, published 2024):

Experiments:
MOLT-4 cells = experiment: MOLT-4 cell viability, CTG assay; assay type: cell-based; settings: Homo sapiens, MOLT-4, 48 h
Outline: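 Cells grown in RPMI 1640 with 10% FBS at 37° C, 5% CO2, then exposed to compounds for 48 h (11-point 5-fold dilution, triplicates). ATP measured by CellTiter-Glo luminescence; IC50 from four-parameter fit versus control, mean of ≥2 independent experiments.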

Bcl-xL = target: T1, Bcl-xL (Homo sapiens, UniProt Q07817); experiment: HCT116 Bcl-xL degradation, capillary-based immunoassay (WES); assay type: cell-based; settings: for DC50: HCT116, 24 h, 9-point serial dilution
T1 construct: Measured levels of Bcl-xL protein of HCT116 cells treated with the tested compounds; host or cells: HCT116
Outline: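 HCT116 cells treated 24 h with compound at 10/100 nM and/or 9-point dilution (quadruplicates), then lysed. Bcl-xL measured by capillary WES immunoassay, normalized to cofilin and expressed as % of untreated cells. DC50 from four-parameter curve fit.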

T1 sequence (Q07817 whole entry): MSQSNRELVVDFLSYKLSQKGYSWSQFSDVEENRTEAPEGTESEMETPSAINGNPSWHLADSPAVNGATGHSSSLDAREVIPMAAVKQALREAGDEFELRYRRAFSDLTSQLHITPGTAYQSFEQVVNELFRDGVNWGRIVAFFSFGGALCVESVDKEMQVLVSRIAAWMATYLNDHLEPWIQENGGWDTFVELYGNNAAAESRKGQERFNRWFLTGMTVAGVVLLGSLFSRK

Structure (SMILES) | IC50 (MOLT-4 cells) [µM] | DC50 (Bcl-xL) [µM] | remaining activity at 0.01 µM (Bcl-xL; HCT-116, HCT116, 10 nM, 24 h, % of untreated cells) [%] | remaining activity at 0.1 µM (Bcl-xL; HCT-116, HCT116, 100 nM, 24 h, % of untreated cells) [%]
Cc1c(Nc2nc3ccccc3s2)nnc2c1CCCN2c1ccc(-c2cnn(CC34CC5(C)CC(C)(C3)CC(OCCN(C)CCCCCCCCCCCCCOc3ccc6c(c3)C(=O)N(C3CCC(=O)NC3=O)C6=O)(C5)C4)c2C)c(C(=O)O)n1 (stereo not shown) [Example 115, 6-[3-(1,3-benzothiazol-2-ylamino)-4-methyl-6,7-dihydro-5H-pyrido[2,3-c]pyridazin-8-yl]-3-[1-[[3-[2-[13-[2-(2,6-dioxo-3-piperidyl)-1,3-dioxo-isoindolin-5-yl]oxytridecyl-methyl-amino]ethoxy]-5,7-dimethyl-1-adamantyl]methyl]-5-methyl-pyrazol-4-yl]pyridine-2-carboxylic acid] | 0.00393 | 0.000266 | – | –
Cc1c(Nc2nc3ccccc3s2)nnc2c1CCCN2c1ccc(-c2cnn(CC34CC5(C)CC(C)(C3)CC(OCCN(C)CCOCCOCCOCCOCCNc3cccc6c3C(=O)N(C3CCC(=O)NC3=O)C6=O)(C5)C4)c2C)c(C(=O)O)n1 (stereo not shown) [Example 132, 6-[3-(1,3-benzothiazol-2-ylamino)-4-methyl-6,7-dihydro-5H-pyrido[2,3-c]pyridazin-8-yl]-3-[1-[[3-[2-[2-[2-[2-[2-[2-[[2-(2,6-dioxo-3-piperidyl)-1,3-dioxo-isoindolin-4-yl]amino]ethoxy]ethoxy]ethoxy]ethoxy]ethyl-methyl-amino]ethoxy]-5,7-dimethyl-1-adamantyl]methyl]-5-methyl-pyrazol-4-yl]pyridine-2-carboxylic acid] | 0.0266 | – | 108 | 103
Cc1c(Nc2nc3ccccc3s2)nnc2c1CCCN2c1ccc(-c2cnn(CC34CC5(C)CC(C)(C3)CC(OCCN(C)CCCCCCOc3cccc6c3C(=O)N(C3CCC(=O)NC3=O)C6=O)(C5)C4)c2C)c(C(=O)O)n1 (stereo not shown) [Example 141, 6-[3-(1,3-benzothiazol-2-ylamino)-4-methyl-6,7-dihydro-5H-pyrido[2,3-c]pyridazin-8-yl]-3-[1-[[3-[2-[6-[2-(2,6-dioxo-3-piperidyl)-1,3-dioxo-isoindolin-4-yl]oxyhexyl-methyl-amino]ethoxy]-5,7-dimethyl-1-adamantyl]methyl]-5-methyl-pyrazol-4-yl]pyridine-2-carboxylic acid] | 0.0104 | > 0.316 | – | –
Cc1c(Nc2nc3ccccc3s2)nnc2c1CCCN2c1ccc(-c2cnn(CC34CC5(C)CC(C)(C3)CC(OCCN(C)CCCCCCCCCCCCCCOc3ccc6c(c3)C(=O)N(C3CCC(=O)NC3=O)C6=O)(C5)C4)c2C)c(C(=O)O)n1 (stereo not shown) [Example 142, 6-[3-(1,3-benzothiazol-2-ylamino)-4-methyl-6,7-dihydro-5H-pyrido[2,3-c]pyridazin-8-yl]-3-[1-[[3-[2-[14-[2-(2,6-dioxo-3-piperidyl)-1,3-dioxo-isoindolin-5-yl]oxytetradecyl-methyl-amino]ethoxy]-5,7-dimethyl-1-adamantyl]methyl]-5-methyl-pyrazol-4-yl]pyridine-2-carboxylic acid] | 0.00376 | 0.000341 | – | –

Next, values leading:

IC50 (MOLT-4 cells) [µM] | DC50 (Bcl-xL) [µM] | remaining activity at 0.01 µM (Bcl-xL; HCT-116, HCT116, 10 nM, 24 h, % of untreated cells) [%] | remaining activity at 0.1 µM (Bcl-xL; HCT-116, HCT116, 100 nM, 24 h, % of untreated cells) [%] | Structure (SMILES)
0.00528 | > 0.316 | – | – | Cc1c(Nc2nc3ccccc3s2)nnc2c1CCCN2c1ccc(-c2cnn(CC34CC5(C)CC(C)(C3)CC(OCCN(C)CCCCCCCCOc3cccc6c3C(=O)N(C3CCC(=O)NC3=O)C6=O)(C5)C4)c2C)c(C(=O)O)n1 (stereo not shown) [Example 143, 6-[3-(1,3-benzothiazol-2-ylamino)-4-methyl-6,7-dihydro-5H-pyrido[2,3-c]pyridazin-8-yl]-3-[1-[[3-[2-[8-[2-(2,6-dioxo-3-piperidyl)-1,3-dioxo-isoindolin-4-yl]oxyoctyl-methyl-amino]ethoxy]-5,7-dimethyl-1-adamantyl]methyl]-5-methyl-pyrazol-4-yl]pyridine-2-carboxylic acid]
0.00534 | > 0.316 | – | – | Cc1c(Nc2nc3ccccc3s2)nnc2c1CCCN2c1ccc(-c2cnn(CC34CC5(C)CC(C)(C3)CC(OCCN(C)CCCCCCCCCCCCCCCCOc3ccc6c(c3)C(=O)N(C3CCC(=O)NC3=O)C6=O)(C5)C4)c2C)c(C(=O)O)n1 (stereo not shown) [Example 147, 6-[3-(1,3-benzothiazol-2-ylamino)-4-methyl-6,7-dihydro-5H-pyrido[2,3-c]pyridazin-8-yl]-3-[1-[[3-[2-[16-[2-(2,6-dioxo-3-piperidyl)-1,3-dioxo-isoindolin-5-yl]oxyhexadecyl-methyl-amino]ethoxy]-5,7-dimethyl-1-adamantyl]methyl]-5-methyl-pyrazol-4-yl]pyridine-2-carboxylic acid]
0.00762 | 0.0188 | – | – | Cc1ncsc1-c1ccc([C@H](C)NC(=O)[C@@H]2C[C@@H](O)CN2C(=O)[C@@H](NC(=O)CCCCCCCCCCCCCN(C)CCOC23CC4(C)CC(C)(CC(Cn5ncc(-c6ccc(N7CCCc8c7nnc(Nc7nc9ccccc9s7)c8C)nc6C(=O)NC(C)C)c5C)(C4)C2)C3)C(C)(C)C)cc1 [Example 157, 6-[3-(1,3-benzothiazol-2-ylamino)-4-methyl-6,7-dihydro-5H-pyrido[2,3-c]pyridazin-8-yl]-3-[1-[[3-[2-[[14-[[(1S)-1-[(2S,4R)-4-hydroxy-2-[[(1S)-1-[4-(4-methylthiazol-5-yl)phenyl]ethyl]carbamoyl]pyrrolidine-1-carbonyl]-2,2-dimethyl-propyl]amino]-14-oxo-tetradecyl]-methyl-amino]ethoxy]-5,7-dimethyl-1-adamantyl]methyl]-5-methyl-pyrazol-4-yl]-N-isopropyl-pyridine-2-carboxamide]
0.0356 | > 0.316 | – | – | Cc1ncsc1-c1ccc([C@H](C)NC(=O)[C@@H]2C[C@@H](O)CN2C(=O)[C@@H](NC(=O)CCOCCOCCN(C)CCOC23CC4(C)CC(C)(CC(Cn5ncc(-c6ccc(N7CCCc8c7nnc(Nc7nc9ccccc9s7)c8C)nc6C(=O)O)c5C)(C4)C2)C3)C(C)(C)C)cc1 [Example 173, 6-[3-(1,3-benzothiazol-2-ylamino)-4-methyl-6,7-dihydro-5H-pyrido[2,3-c]pyridazin-8-yl]-3-[1-[[3-[2-[2-[2-[3-[[(1S)-1-[(2S,4R)-4-hydroxy-2-[[(1S)-1-[4-(4-methylthiazol-5-yl)phenyl]ethyl]carbamoyl]pyrrolidine-1-carbonyl]-2,2-dimethyl-propyl]amino]-3-oxo-propoxy]ethoxy]ethyl-methyl-amino]ethoxy]-5,7-dimethyl-1-adamantyl]methyl]-5-methyl-pyrazol-4-yl]pyridine-2-carboxylic acid]
0.026 | > 0.316 | – | – | Cc1c(Nc2nc3ccccc3s2)nnc2c1CCCN2c1nc(C(=O)O)c(CCCOc2ccc(C#CCN3CCN(C(=O)CCCC(=O)NCCOCCNC(=O)COc4cccc5c4C(=O)N(C4CCC(=O)NC4=O)C5=O)CC3)cc2F)s1 (stereo not shown) [Example 174, 2-[3-(1,3-benzothiazol-2-ylamino)-4-methyl-6,7-dihydro-5H-pyrido[2,3-c]pyridazin-8-yl]-5-[3-[4-[3-[4-[5-[2-[2-[[2-[2-(2,6-dioxo-3-piperidyl)-1,3-dioxo-isoindolin-4-yl]oxyacetyl]amino]ethoxy]ethylamino]-5-oxo-pentanoyl]piperazin-1-yl]prop-1-ynyl]-2-fluoro-phenoxy]propyl]thiazole-4-carboxylic acid]
